Measurements: patent US7022484B2, “Methods for treating neuropathological states and neurogenic inflammatory states and methods for identifying compounds useful therein” (Board of Regents, The University of Texas System, priority 2000, dated 2006)
Entries after “also recorded” stand apart in the source; their conditions may differ.

Tests used:
NMDA currents = settings: patch clamp studies; cited from earlier work
rat arthritis model = test: Paw withdrawal latency (PWL) to radiant heat in rat kaolin/carrageenan knee joint inflammation model; assay type: in vivo
Description: All studies followed the guidelines of the Institute Animal Care and Use Committee, in accordance with the guidelines of the National Institutes of Health. All animals were hosted in a room with a constant ambient temperature of 22° C. and 12 hour light/dark cycle with free access to food and water. Eighty-five Sprague-Dawley rats (250–300 grams) total were used in experiments conducted for biochemical, behavioral, and immunocytochemistry studies. […] On Day 2 baseline behavioral testing was followed by infusion of agents for 1.5 hours (pretreatment) prior to induction of knee joint inflammation under brief anesthesia. Behavioral testing was repeated 4 hours after induction of joint inflammation. Anesthetized animals were either transcardially perfused with aldehydes for immunohistochemical studies or fresh, frozen tissues collected for biochemical studies.
A microdialysis fiber was implanted into the spinal dorsal horn of anesthetized rats (sodium pentobarbital, 50 mg/kg) one day prior to the induction of arthritis according to the procedure of Skilling et al. (J. Neurochem., 51:127–132 (1988)), as described in Sluka et al. (Neurosci. Lett., 145:141–144 (1992)). Briefly, a small midline incision was made in the skin over the T12 vertebral level. The vertebrae were cleared of muscle and two 1 millimeter (mm) holes were drilled in the lateral aspect of both sides of the T12 vertebrae to expose the L4 spinal segment. A microdialysis fiber ([…], 45,000 MW cut-off, Hospal, AN69, Hospal Industrie, Meyzieu, France), was passed transversely across the deep dorsal horn and stabilized with dental cement. The microdialysis fiber was then passed through the holes in the vertebrae and transversely through the dorsal horn of the spinal cord. A 2 mm section of the microdialysis fiber lies in the dorsal horn at the level of L3–4 segment. The tubing was coated with epoxy except for a permeable portion passing through the spinal grey matter. The microdialysis fiber was connected to PE20 tubing (Becton Dickinson and Company, San Mateo, Calif.) which was tunneled under the skin to the nape of the neck. Alternatively as a systemic control for drug administration, the microdialysis fiber was implanted only in the subcutaneous tissue over the back muscle and tunneled to the neck. Artificial cerebrospinal fluid (aCSF) was made as described by Sorkin et al. (J. Neurosci. Methods, 23, 131–138 (1988)) and was infused (5 microliters/minute) for 1.5 hours and then the tube was heat-sealed for use on the following day.
Dose response curves were generated for Genistein with animals receiving Genistein spinally at concentration of 0.2 mM (n=3), 0.5 mM (n=3), 1 mM (n=9), and 2 mM (n=3). Animals received Lavendustin A or B spinally at concentrations of 0.1 mM (n=3), 0.5 mM (n=3), and 1 mM (n=5) as a positive and negative control for Genistein. […] Daidzein was tested at a dose of 1 mM (n=3). […] Eight additional animals received the vehicle, 50% DMSO in aCSF, as a control.
An acute inflammatory response restricted to the knee joint can be induced by the injection of 3% kaolin and 3% carrageenan (in sterile saline; 0.1 ml; pH 7.4) into the joint cavity while the animal is briefly anesthetized with sodium methohexital (Brevital, 60 mg/kg, i.p.). Kaolin and carrageenan were obtained from Fisher Scientific, St. Louis, Mo. The knee joint is flexed manually until the rat awakes (approximately 5–10 minutes). In this arthritis model in the awake rat, localized joint swelling, as well as limping and guarding of the limb, are well developed at 4 hours (Sluka et al., Pain, 59, 95–100 (1994)) when behavioral testing begins.
Fifty-five rats were used for behavioral studies. Four hours after induction of the arthritis, the joint is swollen and increased withdrawal responses to radiant heat and spontaneous guarding of the limb were noted. The increased responsiveness to noxious stimuli indicates the presence of secondary hyperalgesia. […]

[1] = tested on: NMDA receptor subunit NR1; test: Immunocytochemical localization of NMDA receptor subunit NR1 in spinal cord of arthritic rats; assay type: in vivo, rat; settings: Genistein 1 mM spinal pre-treatment
Description: Cycloheximide (100 milligrams per kilogram (mg/kg) intraperitoneal (i.p.) was used in some studies to determine if the alterations observed for the NMDA NR1 receptor subunit could be attributed to newly synthesized NR1 protein.
Twenty-four rats in 3 separate groups were used for immunocytochemical studies. One group of rat (n=8) was a naive control. The other 2 groups (n=16) of rats received surgical placement of the microdialysis fiber placement. On the day after microdialysis fiber placement, the animals were treated spinally with either Genistein (1 mM) or vehicle (50% DMSO in aCSF) for 1.5 hours (n=8 for each group). Then the left knee joint of all sixteen rats was injected with 0.1 ml of kaolin and carrageenan.
Animals were anesthetized and transcardially perfused with a brief warm saline rinse followed by fixative solution (4% paraformaldehyde in 0.1 M phosphate buffer, pH 7.4). The tissues were soaked overnight in 30% buffered sucrose and cut at 30 microns on a sliding microtome. For light microscopy, the tissues from animals (n=8) were permeabilized with a 50% buffered ethanol treatment. Tissue sections were then stained immunocytochemically for glutamate receptor subunit NR1 and phospho-NR1. Primary antibodies to be used for staining include anti-NMDA NR1 NMDA receptor (0.5–1 milligrams per milliliter (mg/ml)) purchased from Chemlcon Inc. (Pittsburgh, Pa.). Other neurotransmitter and receptor primary antibodies against NMDA NR2C, mGluR1, and mGluR5 were used as stain specificity controls. The primary antibodies were diluted in phosphate buffered saline (PBS, pH 7.6) with 0.1% BSA for overnight incubation on the spinal cord tissues. After washing in PBS, the tissue sections were incubated in the appropriate secondary antibody, either anti-mouse or anti-rabbit IgG (1:100, 30 minutes) and in avidin-biotin complex (ABC, 1:100, Vector Laboratories, Burlingame, Calif.). Sections were reacted with diaminobenzidine (DAB) solution (1.5 mg/ml) as the chromogen and peroxide (0.5 mg/ml) to produce a dense reaction product. To further intensify the reaction product particularly for visualization of nuclear rings, some tissues were reacted with colloidal gold conjugated IgG and reacted with a silver chloride solution to produce an intense black reaction product (Takizawa et al., J. Histochemistry & Cytochemistry, 42, 1615–1623 (1994)).
Immunocytochemical controls included sections processed in the absence of the primary or secondary antibody or ABC reagents. The specificity of the transmitter antibodies was confirmed by appearance of a single band by Western blot. In addition to use of the C-terminus NR1 antibody from ChemIcon, an antibody directed to the N-terminus of the NR1 protein was used as control (1 mg/ml; BD PharMingen, San Diego, Calif.). […]

Structure (SMILES): O=c1c(-c2ccc(O)cc2)coc2cc(O)cc(O)c12 [Genistein, 5,7-Dihydroxy-3-(4-hydroxyphenyl)-4H-1-benzopyran-4-one; 4′,5,7-trihydroxy-isoflavone]
- effect on NMDA currents (NMDA currents): decreases NMDA currents
- effect on baseline PWL (rat arthritis model; after 1.5 hours infusion, before kaolin/carrageenan): did not affect baseline PWL
- most effective dose in pre-treatment animals (rat arthritis model; concentration inside the microdialysis fiber, spinal administration): 1 mM
- PWL decrease induced by knee joint inflammation (rat arthritis model; spinal microdialysis pre-treatment 1.5 hours, PWL to radiant heat 4 hours after kaolin/carrageenan): significantly (p<0.05 versus 4 hours vehicle group) attenuated the PWL decreases; also recorded: significantly attenuates the inflammation-induced decrease in PWL
- development of secondary hyperalgesia (rat arthritis model; spinal microdialysis pre-treatment, 4 hours after induction of arthritis): secondary hyperalgesia did not develop
- staining for NR1 in spinal cord ([1]; 4 hours, cycloheximide 100 mg/kg i.p.): about half that observed in arthritic rats and was not significantly increased above levels seen in normal rats; also recorded: greatly reduced expression increases for NR1 that were not significantly different from baseline
- nuclear localization of NR1 [1]: greatly reduced; also recorded: inhibited the shift in the pattern of NMDA NR1 protein staining
